Measurements: patent US8946266B2, “Substituted triazole and imidazole derivatives as gamma secretase modulators” (Janssen Pharmaceuticals, Inc., priority 2009, dated 2015)
Like-named read-outs stand apart in the source and are kept apart here.

Assays:
Aβtotal = assay: γ-secretase-modulating activity, Method 2: Aβtotal Alphalisa in supernatant of SKNBE2 cells carrying APP 695-wild type (Table 3b); format: cell-based; conditions: overnight, read-out: IC50 Aβtot
Protocol: (§1) Screening was carried out using SKNBE2 cells carrying the APP 695-wild type, grown in Dulbecco's Modified Eagle's Medium/Nutrient mixture F-12 (DMEM/NUT-mix F-12) (HAM) provided by Invitrogen (cat no. 10371-029) containing 5% Serum/Fe supplemented with 1% non-essential amino acids, 1-glutamine 2 mM, Hepes 15 mM, penicillin 50 U/ml (units/ml) en streptomycin 50 μg/ml. Cells were grown to near confluency.
(§2) The screening was performed using a modification of the assay as described in Citron et al (1997) Nature Medicine 3: 67. Briefly, cells were plated in a 384-well plate at 10^4 cells/well in Ultraculture (Lonza, BE12-725F) supplemented with 1% glutamine (Invitrogen, 25030-024), 1% non-essential amino acid (NEAA), penicillin 50 U/ml en streptomycin 50 μg/ml in the presence of test compound at different test concentrations. The cell/compound mixture was incubated overnight at 37° C., 5% CO2. The next day the media were assayed by two sandwich immuno-assays, for Aβ42 and Aβtotal.
(§3) Aβtotal and Aβ42 concentrations were quantified in the cell supernatant using the Aphalisa technology (Perkin Elmer). Alphalisa is a sandwich assay using biotinylated antibody attached to streptavidin coated donorbeads and antibody conjugated to acceptor beads. In the presence of antigen, the beads come into close proximity. The excitation of the donor beads provokes the release of singlet oxygen molecules that trigger a cascade of energy transfer in the acceptor beads, resulting in light emission. To quantify the amount of Aβ42 in the cell supernatant, monoclonal antibody specific to the C-terminus of Aβ42 (JRF/cAβ42/26) was coupled to the receptor beads and biotinylated antibody specific to the N-terminus of Aβ (JRF/AβN/25) was used to react with the donor beads. To quantify the amount of Aβ total in the cell supernatant, monoclonal antibody specific to the N-terminus of Aβ (JRF/AβN/25) was coupled to the receptor beads and biotinylated antibody specific to the mid region of Aβ (biotinylated 4G8) was used to react with the donor beads.
(§4) The sigmoidal dose response curves were analyzed using non-linear regression analysis with percentage of the control plotted against the log concentration of the compound. A 4-parameter equation was used to determine the IC50.
(§5) The IC50 values are shown in Table 3b (Aβtot means Aβtotal).

Aβ42 = assay: γ-secretase-modulating activity, Method 2: Aβ42 Alphalisa in supernatant of SKNBE2 cells carrying APP 695-wild type (Table 3b); format: cell-based; conditions: overnight
Protocol: as §1, §2, §3
To obtain the values reported in Table 3b, the data were calculated as percentage of the maximum amount of amyloid Beta 42 measured in the absence of the test compound.
as §4, §5

IC50 (Aβtotal) [nM]	IC50 (Aβ42) [nM]	IC50 (Aβtotal; Homo sapiens) [nM]	IC50 (Aβ42; Homo sapiens) [nM]	Compound
9550	200	–	–	COc1cc(-c2nc(-c3ccccc3C(F)(F)F)n(C(C)C)n2)ccc1-n1cnc(C)c1 [Compound 67]
891	676	–	–	COc1cc(-c2nc(Nc3ccc(C#N)cc3F)n(C)n2)ccc1-n1cnc(C)c1 [Compound 227]
> 10000	302	–	–	COc1cc(-c2nc(Nc3ccc(C#N)cc3C(F)(F)F)n(C)n2)ccc1-n1cnc(C)c1 [Compound 230]
> 10000	135	–	–	COc1ccc(Nc2nc(-c3ccc(-n4cnc(C)c4)c(OC)c3)nn2C)c(F)c1 [Compound 197]
> 10000	295	–	–	COc1cc(-c2nc(Nc3cccc(C#N)c3F)n(C)n2)ccc1-n1cnc(C)c1 [Compound 229]
–	–	6610	36	COc1cc(-c2nc(N3CCCC(c4ccccc4)C3)n(C(C)C)n2)ccc1-n1cnc(C)c1 (stereo not shown) [Compound 79]
> 10000	170	–	–	COc1nc(-c2nc3n(n2)CCCC3c2ccc(F)cc2)ccc1-n1cnc(C)c1 (stereo not shown) [Compound 253]
> 10000	95	–	–	COc1ccc(F)c(Nc2nc(-c3ccc(-n4cnc(C)c4)c(OC)c3)nn2C)c1 [Compound 195]
> 10000	3090	–	–	COc1cc(-c2nc(-c3ccc4ccccc4n3)n(C)n2)ccc1-n1cnc(C)c1 [Compound 326]
> 10000	1350	–	–	COc1cc(-c2ncn(-c3ccccc3C(F)(F)F)n2)ccc1-n1cnc(C)c1 [Compound 63]
> 10000	8320	–	–	COc1cc(-c2nc(Nc3cccn(C)c3=O)n(C)n2)ccc1-n1cnc(C)c1 [Compound 243]
> 10000	95	–	–	COc1cc(-c2nc(Nc3cccc(F)c3C(F)(F)F)n(C)n2)ccc1-n1cnc(C)c1 [Compound 155]
> 10000	871	–	–	COc1cc(-c2nc(C(C)(C)O)n(C(C)c3ccc(F)cc3)n2)ccc1-n1cnc(C)c1 (racemic) [Compound 300]
> 10000	646	–	–	COc1cc(-c2nc3n(n2)CCOC3c2ccc(F)cc2C)ccc1-n1cnc(C)c1 (stereo not shown) [Compound 305]
> 10000	200	–	–	COc1cc(-c2nc(Nc3c(F)cccc3F)n(C)n2)ccc1-n1cnc(C)c1 [Compound 116]
> 10000	6	–	–	COc1nc(-c2nc(Nc3cc(C(F)(F)F)ccc3Cl)n(C)n2)ccc1-n1cnc(C)c1 [Compound 160]
> 10000	107	–	–	COc1cc(-c2nc3n(n2)CCOC3c2cccc(F)c2C)ccc1-n1cnc(C)c1 (stereo not shown) [Compound 345]
–	–	> 10000	148	COc1cc(-c2nc3n(n2)CCCC3(O)c2ccc(F)cc2C)ccc1-n1cnc(C)c1 (stereo not shown) [Compound 269]
> 10000	295	–	–	COc1cc(-c2nc(C)n(-c3cccc(C(F)(F)F)c3)n2)ccc1-n1cnc(C)c1 [Compound 30]
> 10000	30	–	–	COc1cc(-c2nc(Nc3cccc(C(F)(F)F)c3C)n(C)n2)ccc1-n1cnc(C)c1 [Compound 164]
> 10000	62	–	–	COc1cc(-c2nc(Nc3cc(C(F)(F)F)c(F)cc3F)n(C)n2)ccc1-n1cnc(C)c1 [Compound 172]
> 10000	76	–	–	COc1cc(-c2nc3n(n2)CCCOC3c2ccccc2C(F)(F)F)ccc1-n1cnc(C)c1 (stereo not shown) [Compound 285]
> 10000	794	–	–	COc1cc(-c2nc(Nc3ncccc3C(F)(F)F)n(C)n2)ccc1-n1cnc(C)c1 [Compound 240]
> 10000	41	–	–	COc1cc(-c2nc(Nc3cc(C(F)(F)F)ccc3F)n(CCC#N)n2)ccc1-n1cnc(C)c1 [Compound 137]
> 10000	71	–	–	COc1cc(-c2nc(Nc3cc(F)ccc3C(F)(F)F)n(C)n2)ccc1-n1cnc(C)c1 [Compound 168]
> 10000	309	–	–	COc1cc(-c2n[nH]c(C(CCCCCl)c3ccccc3C(F)(F)F)n2)ccc1-n1cnc(C)c1 (stereo not shown) [Compound 70]
> 10000	60	–	–	COc1cc(-c2nc(Nc3cc(F)ccc3C)n(C)n2)ccc1-n1cnc(C)c1 [Compound 173]
> 10000	100	–	–	CCOc1ccccc1Nc1nc(-c2ccc(-n3cnc(C)c3)c(OC)c2)nn1C [Compound 205]

IC50 (Aβtotal) [nM]	IC50 (Aβ42) [nM]	IC50 (Aβtotal; Homo sapiens) [nM]	IC50 (Aβ42; Homo sapiens) [nM]	Compound
2340	31	–	–	COc1cc(-c2nc(Nc3cccc(C(F)(F)F)c3)n(C(C)C)n2)ccc1-n1cnc(C)c1 [Compound 133]
> 10000	195	–	–	COc1cc(-c2nc(-c3ccccc3Cl)n(CC(F)(F)F)n2)ccc1-n1cnc(C)c1 [Compound 86]
> 10000	62	–	–	COc1cc(-c2nc(Nc3cccc(C(F)(F)F)c3Cl)n(C)n2)ccc1-n1cnc(C)c1 [Compound 163]
6460	251	–	–	COc1cc(-c2nc(N3CCC(c4cccc(C(F)(F)F)c4)C3)n(C(C)C)n2)ccc1-n1cnc(C)c1 (racemic) [Compound 74]
> 10000	5750	–	–	COc1cc(-c2nc(-c3ccc(F)cc3)nn2C)ccc1-n1cnc(C)c1 [Compound 52]
> 10000	117	–	–	COc1cc(-c2nc(-c3cccc(C(F)(F)F)c3)n(C)n2)ccc1-n1cnc(C)c1 [Compound 7]
–	–	> 10000	95	COc1cc(-c2nc(Nc3cc(C(F)(F)F)ccc3F)n(C)n2)ccc1-n1ccnc1 [Compound 359]
> 10000	269	–	–	COc1cc(F)ccc1Nc1nc(-c2ccc(-n3cnc(C)c3)c(OC)c2)nn1C [Compound 215]
> 10000	661	–	–	COc1cc(-c2nc3n(n2)CCN(C(C)=O)C3c2cccc(C(F)(F)F)c2)ccc1-n1cnc(C)c1 (stereo not shown) [Compound 277]
> 10000	4470	–	–	COc1cc(-c2nc(Nc3ccc(F)cc3C#N)n(C)n2)ccc1-n1cnc(C)c1 [Compound 228]
> 10000	1320	–	–	COc1cc(-c2nc(Nc3ccccc3C(C)=O)n(C)n2)ccc1-n1cnc(C)c1 [Compound 324]
> 10000	4170	–	–	COc1cc(-c2nc(-c3ccccc3C(F)(F)F)nn2C)ccc1-n1cnc(C)c1 [Compound 54]
> 10000	151	–	–	COc1cc(-c2nc(Nc3cccc(F)c3F)n(C)n2)ccc1-n1cnc(C)c1 [Compound 124]
8130	166	–	–	Cc1cn(-c2ccc(-c3nc(Nc4cccc(C(F)(F)F)c4)n(C)n3)cc2)cn1 [Compound 206]
145	7	–	–	CCOc1cc(C)c(Nc2nc(-c3ccc(-n4cnc(C)c4)c(OC)c3)nn2C)cc1C(C)C [Compound 328]
> 15000	15	–	–	COc1ccc(C(F)(F)F)cc1Nc1nc(-c2ccc(-n3cnc(C)c3)c(OC)n2)nn1C [Compound 201]
> 10000	170	–	–	COc1cc(-c2nc3n(n2)CCCC32CCCCC2)ccc1-n1cnc(C)c1 [Compound 270]
–	–	> 10000	646	COc1cc(-c2nc(Sc3cccc(C(F)(F)F)c3)n(C)n2)ccc1-n1cnc(C)c1 [Compound 249]
> 10000	59	–	–	COc1cc(-c2nc(Nc3cc(F)c(F)cc3C(F)(F)F)n(C)n2)ccc1-n1cnc(C)c1 [Compound 142]
> 10000	3240	–	–	Cc1cn(-c2ccc(-c3nc(Nc4ccc(F)cc4C(F)(F)F)n(C)n3)nc2)cn1 [Compound 170]
> 10000	191	–	–	COc1cc(-c2nc3n(n2)CCOC3c2ccc(F)cc2C)ccc1-n1cnc(C)c1 (stereo not shown) [Compound 280]
> 10000	209	–	–	COc1cc(-c2nc(-c3cc(Cl)ccc3C)n(C)n2)ccc1-n1cnc(C)c1 [Compound 88]
> 10000	933	–	–	CNc1nc(-c2ccc(-n3cnc(C)c3)c(OC)n2)nn1-c1cccc(C(F)(F)F)c1 [Compound 92]
9550	200	–	–	COc1cc(-c2nc(-c3cc(C(F)(F)F)ccc3C)n(C(C)C)n2)ccc1-n1cnc(C)c1 [Compound 73]
> 10000	65	–	–	COc1cc(-c2nc(Nc3cccc(Cl)c3OC)n(C)n2)ccc1-n1cnc(C)c1 [Compound 194]
> 10000	162	–	–	COc1nc(-c2nc3n(n2)CCC[C@@H]3c2cc(C(F)(F)F)ccc2C)ccc1-n1cnc(C)c1 [Compound 342]
> 10000	89	–	–	COc1cc(-c2nc(Nc3cccc(Cl)c3F)n(C)n2)ccc1-n1cnc(C)c1 [Compound 118]

Compound	IC50 (Aβtotal) [nM]	IC50 (Aβ42) [nM]	IC50 (Aβtotal; Homo sapiens) [nM]	IC50 (Aβ42; Homo sapiens) [nM]
COc1nc(-c2nc3n(n2)CCOC3c2cccc(F)c2C)ccc1-n1cnc(C)c1 (stereo not shown) [Compound 347]	> 10000	126	–	–
